Reference: patent publication US5759842A, “In vitro HIV integrase inhibitors” (Merck & Co., Inc., priority 1996, dated 1998)

What was measured:
HIV Integrase = HIV Integrase (Human immunodeficiency virus type 1 group M subtype B, UniProt P04585); experiment: Assay for Inhibition of Strand Transfer by HIV Integrase; assay type: biochemical
Method: Assay for Inhibition of Strand Transfer by HIV Integrase
Inhibition of strand transfer was conducted according to Hazuda, D. J. et al. Nucleic Acids Res., 22, 1121 (1994), hereby incorporated by reference for these purposes.

[1] = molecular target: DNP-stimulatedATPase activity of rat liver mitochondria; conditions: Koenig et al. 1993, read-out: IC50, DNP-stimulated ATPase activity; cited from earlier work
[2] = molecular target: DNP-stimulatedATPase activity of rat liver mitoplast; conditions: Koenig et al. 1993, read-out: IC50, DNP-stimulated ATPase activity; cited from earlier work

SMILES | IC50 (HIV Integrase) [µM] | IC50 [1] [µM] | IC50 [2] [µM]
CC=CC1C=CC2CC(C)CCC2C1(C)C(O)=C1C(=O)C(CO)N(C)C1=O (centres unmarked) [Compound A, equisetin] | 7 | ~0.008 | ~0.008
CC=CC=CC1C(C)=CC2CC(C)CCC2C1(C)C(O)=C1C(=O)C(CO)N(C)C1=O (centres unmarked) [Compound B] | 11 | – | –
CCCCCC1C(C)=CC2CC(C)CCC2C1(C)C(O)=C1C(=O)C(CO)N(C)C1=O (centres unmarked) [Compound C] | 5 | – | –
